Assay type in all cases: cell-based, Escherichia coli
The subject of assay [1] is E. coli strain ECM6704 (pUCP24, vector). Nature of the assay: MIC, broth microdilution, isogenic E. coli panel, empty vector strain. As to conditions: for Ratio of MIC vs vector alone: strain ECM6704, pUCP24, vector (reference strain itself). As to the method:
(§1) Potency and spectrum of compound 1 was determined using the panel of isogenic engineered strains, each containing a plasmid carrying a cloned gene expressing a β-lactamase enzyme. The strain that contained the empty vector was included to evaluate the impact of individual β-lactamases on microbiological activity of compound 1 vs comparator antibiotics. The host strain was wild-type strain of Escherichia coli, ECM5497. The vector plasmid was pUCP24. […] MIC was assessed using broth microdilution method as recommended by the NCCLS (National Committee for Clinical Laboratory Standards. Methods for Dilution Antimicrobial Susceptibility Tests for Bacteria that Grow Aerobically—4th Edition. Approved Standard NCCLS Document M7-A4, Vol. 17, No. 2, NCCLS, Wayne, Pa., January 1997). In this assay multiple dilutions of drugs are being tested for the ability to inhibit growth of the test bacterial strains. The MIC assay is performed in microtiter plates. Antibiotics are diluted two-fold in the x axis, each column containing a single concentration of antibiotic. The assay is performed in MHB with a final bacterial inoculum of 5×10^5 CFU/mL (from an early-log phase culture). Microtiter plates are incubated during 20 h at 35° C. and are read using a microtiterplate reader (Molecular Devices) at 650 nm as well as visual observation using a microtiter plate reading mirror.
A general note: Broth dilution looks for growth in wells or tubes with falling amounts of substance.

For assay [2], the system named is E. coli strain ECM6694 (pUCP24::CTX-M-15). Description: MIC, broth microdilution, isogenic E. coli panel, CTX-M-15 strain. Conditions: for Ratio of MIC vs vector alone: strain ECM6694, pUCP24::CTX-M-15 vs ECM6704. Here is the method: as §1
The test system of assay [3] is E. coli strain ECM6713 (pUCP24::TEM-10). Description: MIC, broth microdilution, isogenic E. coli panel, TEM-10 strain. Conditions: for Ratio of MIC vs vector alone: strain ECM6713, pUCP24::TEM-10 vs ECM6704. Here is the method:
as §1

In assay [4] the test system is E. coli strain ECM6715 (pUCP24::AmpC). Description: MIC, broth microdilution, isogenic E. coli panel, AmpC strain. As to conditions: for Ratio of MIC vs vector alone: strain ECM6715, pUCP24::AmpC vs ECM6704. As to the method:
as §1

In assay [5] the test system is E. coli strain ECM6716 (pUCP24::OXA-48). Nature of the assay: MIC, broth microdilution, isogenic E. coli panel, OXA-48 strain. As to conditions: for Ratio of MIC vs vector alone: strain ECM6716, pUCP24::OXA-48 vs ECM6704. As to the method: as §1
Assay [6] concerns E. coli strain ECM6703 (pUCP24::NDM-1). Nature of the assay: MIC, broth microdilution, isogenic E. coli panel, NDM-1 strain. As to conditions: for Ratio of MIC vs vector alone: strain ECM6703, pUCP24::NDM-1 vs ECM6704. Here is the method: as §1
Assay [7] relates to E. coli strain ECM6711 (pUCP24::VIM-1). Description: MIC, broth microdilution, isogenic E. coli panel, VIM-1 strain. Conditions: for Ratio of MIC vs vector alone: strain ECM6711, pUCP24::VIM-1 vs ECM6704. As to the method: as §1
Assay [8] deals with E. coli strain ECM6706 (pUCP24::SME-2). Description: MIC, broth microdilution, isogenic E. coli panel, SME-2 strain. As to conditions: for Ratio of MIC vs vector alone: strain ECM6706, pUCP24::SME-2 vs ECM6704. Here is the method:
as §1

The subject of assay [9] is E. coli strain ECM6696 (pUCP24::NMC-A). Nature of the assay: MIC, broth microdilution, isogenic E. coli panel, NMC-A strain. Conditions: for Ratio of MIC vs vector alone: strain ECM6696, pUCP24::NMC-A vs ECM6704. As to the method:
as §1

For assay [10], the system named is E. coli strain ECM6701 (pUCP24::KPC-2). Nature of the assay: microbe, parasite or virus in culture. As to conditions: for Ratio of MIC vs vector alone: strain ECM6701, pUCP24::KPC-2 vs ECM6704. Here is the method:
as §1

The subject of assay [11] is E. coli strain ECM6718 (pUCP24::SHV-5). Nature of the assay: microbe, parasite or virus in culture. As to conditions: for Ratio of MIC vs vector alone: strain ECM6718, pUCP24::SHV-5 vs ECM6704. As to the method:
as §1

For assay [12], the system named is E. coli strains expressing individual β-lactamases. Description: Impact of β-lactamases on microbiological activity, whole panel of isogenic engineered strains. Here is the method:
as §1
Table 2 contains MICs of compound 1 and comparator antibiotics for each test strain and Table 3 contains MIC ratios vs vector only control (strain ECM6704). β-Lactamases present in the test panel belonged to all four currently described classes of enzymes, A, B, C and D. These β-lactamases also represent the major groups of the most relevant enzymes.

The mark [13] stands for this setting: strain ECM6694, pUCP24::CTX-M-15, class A, ESBL.
Setting [14] is: strain ECM6701, pUCP24::KPC-2, class A, carbapenemase.
Where [15] appears, read: strain ECM6718, pUCP24::SHV-5, class A, ESBL.
[16] abbreviates: strain ECM6713, pUCP24::TEM-10, class A, ESBL.
[17] abbreviates: strain ECM6715, pUCP24::AmpC, class C.
The mark [18] stands for this setting: strain ECM6703, pUCP24::NDM-1, class B.
Where [19] appears, read: strain ECM6711, pUCP24::VIM-1, class B.
[20] abbreviates: strain ECM6706, pUCP24::SME-2, class A, carbapenemase.
Setting [21] is: strain ECM6696, pUCP24::NMC-A, class A, carbapenemase.

≈ marks a conversion by molar mass, not a printed value. A value given as a limit tells only on which side of the number the result lay.

The values below come from patent publication US20140275007A1, “OXAMAZIN ANTIBIOTICS” (priority 2013, published 2014).

Turning to `C[C@H]1[C@H](NC(=O)/C(=N\OC(C)(C)C(=O)O)c2csc(N)n2)C(=O)N1S(=O)(=O)O` [AZTREONAM, aztreonam], the MIC in assay [1] (Escherichia coli, 20 h) is 0.125 µg/mL (≈ 0.287 µM); in assay [2] (Escherichia coli) it was 32 µg/mL (≈ 73.5 µM); in assay [3] (Escherichia coli), greater than 64 µg/mL; in [4] (Escherichia coli), 8 µg/mL (≈ 18.4 µM); in assay [5] (Escherichia coli), 0.125 µg/mL (≈ 0.287 µM); in [6] (Escherichia coli), no more than 0.06 µg/mL. For the same compound, the MIC is no more than 0.06 µg/mL in assay [7] (Escherichia coli), greater than 64 µg/mL in assay [8] (Escherichia coli) and 64 µg/mL (≈ 147 µM) in assay [9] (Escherichia coli).

Consider `NC(=O)OC[C@@H]1[C@H](NC(=O)/C(=N\OCC(=O)O)c2csc(N)n2)C(=O)N1S(=O)(=O)O` [CARUMONAM, carumonam], for which the MIC was no more than 0.06 µg/mL in [1] (Escherichia coli, 20 h); 0.125 µg/mL (≈ 0.268 µM) in [2] (Escherichia coli); 0.25 µg/mL (≈ 0.536 µM) in assay [10] (Escherichia coli); 2 µg/mL (≈ 4.29 µM) in [11] (Escherichia coli); 4 µg/mL (≈ 8.58 µM) in assay [3] (Escherichia coli); 4 µg/mL (≈ 8.58 µM) in [4] (Escherichia coli). For the same compound, the MIC in [5] (Escherichia coli) was no more than 0.06 µg/mL; in assay [6] (Escherichia coli) it was no more than 0.06 µg/mL; in assay [7] (Escherichia coli), no more than 0.06 µg/mL; in assay [8] (Escherichia coli) it was 0.125 µg/mL (≈ 0.268 µM); in [9] (Escherichia coli), 0.25 µg/mL (≈ 0.536 µM). The “Ratio of MIC vs vector alone” value in assay [9] turned out to be 4 µg/mL.

As for `CC(C)(O/N=C(\C(=O)N[C@@H]1C(=O)N2C(C(=O)[O-])=C(C[n+]3ccccc3)CS[C@H]12)c1csc(N)n1)C(=O)O` [CEFTAZIDIME, ceftazidime], the MIC in [2] (setting [13]) is 16 µg/mL (≈ 29.3 µM); in assay [10] (setting [14]), 4 µg/mL (≈ 7.32 µM); in assay [11] (setting [15]), 8 µg/mL (≈ 14.6 µM); in assay [3] (setting [16]), 65 µg/mL (≈ 119 µM); in assay [4] (setting [17]), 16 µg/mL (≈ 29.3 µM); in [6] (setting [18]), greater than 64 µg/mL. The figures for the MIC in assay [7] (setting [19]), in [8] (setting [20]) and in [9] (setting [21]) were greater than 64 µg/mL, 1 µg/mL (≈ 1.83 µM) and 0.5 µg/mL (≈ 0.915 µM), respectively.

As to `CC1(C)[C@H](NC(=O)/C(=N\OCC(=O)O)c2csc(N)n2)C(=O)N1OCC(=O)O` [Compound 1, (S,Z)-2-(1-(2-aminothiazol-4-yl)-2-(1-(carboxymethoxy)-2,2-dimethyl-4-oxoazetidin-3-ylamino)-2-oxoethylideneaminooxy)acetic acid], the MIC in assay [1] (Escherichia coli, 20 h) was 2 µg/mL (≈ 4.81 µM); in [2] (Escherichia coli) it was 1 µg/mL (≈ 2.41 µM); in assay [10] (Escherichia coli) it was 1 µg/mL (≈ 2.41 µM); in assay [11] (Escherichia coli), 4 µg/mL (≈ 9.63 µM); in [3] (Escherichia coli) it was 16 µg/mL (≈ 38.5 µM); in assay [4] (Escherichia coli) it was 2 µg/mL (≈ 4.81 µM). Further, the MIC in assay [5] (Escherichia coli) worked out at 2 µg/mL (≈ 4.81 µM); in assay [6] (Escherichia coli), 1 µg/mL (≈ 2.41 µM); in assay [7] (Escherichia coli) it was 1 µg/mL (≈ 2.41 µM); in assay [8] (Escherichia coli), 1 µg/mL (≈ 2.41 µM); in assay [9] (Escherichia coli) it was 1 µg/mL (≈ 2.41 µM). The “Ratio of MIC vs vector alone” value is on record as 1 in assay [1]; 0.5 in [2]; 0.5 in [10]; 2 in assay [11]; 8 in [3]; 1 in assay [4]. Moreover, the “Ratio of MIC vs vector alone” value in assay [5] turned out to be 1; in [6], 0.5; in assay [7] it was 0.5; in assay [8], 0.5; in assay [9], 0.5 µg/mL. Also, the “Effect of TEM-10 on activity” value in [3] (only enzyme in the panel with an effect, much less than on other monobactams or ceftazidime) is reported as “some effect”. Besides, in [12] (class B or class D β-lactamases), the “Effect of class B or class D enzymes on potency” value is “not affected”. For the same compound, the “Effect of the majority of class A and class C enzymes on potency” value in [12] (majority of class A and class C β-lactamases) is on record as “not affected”. Also, the “Effect of β-lactamases on potency, compared with the other β-lactams tested” value in assay [12] (whole panel, vs aztreonam, tigemonam, carumonam, ceftazidime) is listed as “least affected”.

As for `CC1(C)[C@H](NC(=O)/C(=N\OCC(=O)O)c2csc(N)n2)C(=O)N1OS(=O)(=O)O` [TIGEMONAM, tigemonam], the “Ratio of MIC vs vector alone” value in assay [1] worked out at 1; in assay [2] it was 8; in [10] it was 2; in [11] it was 128; in assay [3] it was 256; in assay [4], 16. For the same compound, the “Ratio of MIC vs vector alone” value in assay [5] is 2; in assay [6], 2; in [7] it was 1; in assay [8], 2; in assay [9] it was 2 µg/mL. Further, the MIC in assay [1] (strain ECM6704, plasmid pUCP24, vector, MHB, 20 h at 35° C.) is 0.25 µg/mL (≈ 0.572 µM); in assay [2] (setting [13]), 2 µg/mL (≈ 4.57 µM); in [10] (setting [14]), 0.5 µg/mL (≈ 1.14 µM); in [11] (setting [15]), 32 µg/mL (≈ 73.2 µM); in assay [3] (setting [16]), greater than 64 µg/mL; in assay [4] (setting [17]) it was 4 µg/mL (≈ 9.14 µM). Moreover, the MIC in assay [5] (strain ECM6716, pUCP24::OXA-48, class D) worked out at 0.25 µg/mL (≈ 0.572 µM); in assay [6] (setting [18]) it was 0.25 µg/mL (≈ 0.572 µM); in assay [7] (setting [19]), 0.25 µg/mL (≈ 0.572 µM); in assay [8] (setting [20]), 0.5 µg/mL (≈ 1.14 µM); in assay [9] (setting [21]), 0.5 µg/mL (≈ 1.14 µM).
